What was measured:
[1] = tested on: ADP-inducing platelet aggregation; experiment: Rabbit exo-vivo test, ADP-inducing platelet aggregation after oral administration (Experiment 2); type: in vivo, Japanese white rabbits
Protocol: Japanese white rabbits weighing 3.0-4.0 kg were fasted for 18 hours. A drug suspension in 2% gum arabic aqueous solution was orally given to the animal in a definite dose. Blood was collected 1 and 4 hours after. PRP was prepared in a manner similar to Experiment 1 and ADP-inducing platelet aggregation function was determined. An inhibition rate was calculated based on an aggregation rate of ADP prior to administration of the compound.

[2] = tested on: thrombocytopenia in mice (collagen-induced, platelet count); experiment: Activity of preventing thrombocytopenia in mice, collagen i.v. (Experiment 3); type: in vivo, male ddY mice; conditions: Mus musculus, 3.0 mg/kg oral, 1 hour before collagen 0.5 mg/kg i.v., * p = 5%, ** p = 1%, *** p = 0.1%, read-out: Average Inhibition Rate (platelet count; normal mouse 100, control mouse 0)
Protocol: Activity of preventing thrombocytopenia in mice:
Collagen (Holm Co.) diluted with physiological saline was intravenously given through the vein to male ddY mice of 6 weeks old, weighing 28-31 g, which had been fasted for 4-5 hours, in a dose of 0.5 mg/kg. Five minutes after, blood was collected from the lower thigh vein under pentobarbital anesthesia through a plastic syringe treated with heparin containing 3.8% sodium citrate. The drug was orally given an hour before the collagen administration. The platelet count was measured with Sysmex E-4000. The inhibition activity is shown in terms of percentage of the platelet count when the platelet count of normal mouse was made 100 and the platelet count of control mouse was made 0.

[3] = tested on: Platelet aggregation (ADP, rabbit platelet rich plasma); experiment: Platelet aggregation inhibition in rabbit PRP, ADP-induced, Born's turbidimetry (Experiment 1); type: cell-based; conditions: Oryctolagus cuniculus, 0.05 h, ADP 2 to 4 μM, 3 min incubation, read-out: Aggregation Inhibition Rate
Protocol: Blood was collected from the ear vein of rabbit, together with 1/10 volume sodium citrate. Centrifugation at 1,200 rpm for 10 minutes gave the supernatant which was made platelet rich plasma (PRP). The blood was further centrifuged at 3,000 rpm for 10 minutes to give platelet poor plasma (PPP). The platelet count of PRP was adjusted to 300,000/μl with PPP, which was provided for the test. Platelet aggregation was determined with aggregometer (HEMATRACERVI, Niko Bioscience Co.) based on Born's turbidimetry. That is, 200 μl of PRP was charged in a cell and 1 μl of a drug solution dissolved in dimethylsulfoxide was added thereto. After incubation for 3 minutes, ADP was added in a concentration of 2 to 4 μM to cause aggregation. Change in transmittance in the cell was then monitored. The results are shown in Table 2, in terms of aggregation inhibition rate which was determined by comparing a transmittance of control with that obtained at the maximum aggregation on an aggregation curve when the transmittance of PRP was made 0% and the transmittance of PPP was made 100%.

COc1ccc(CNc2c(OCCCc3ccccc3)n[nH]c(=O)c2Br)cc1OC [C, reference compound]
Average Inhibition Rate ([1]; 3 mg/kg oral, 1 Hour): 20% | Average Inhibition Rate ([1]; 3 mg/kg oral, 4 Hours): 23% | Average Inhibition Rate ([1]; 30 mg/kg oral, 1 Hour): 36% | Average Inhibition Rate ([1]; 30 mg/kg oral, 4 Hours): 35% | inhibition in vivo at 3 mg/kg [2]: 27.4%

COc1ccc(CNc2c(OCC[S+]([O-])c3ccccc3)n[nH]c(=O)c2Br)cc1OC (stereo not drawn) [Compound 8, 4-bromo-5-(3,4-dimethoxyphenylmethylamino)-6-[2-(phenylsulfinyl)ethyloxy]-3(2H)-pyridazinone]
inhibition at 1 µg/mL ([3]; 10^-6 g/ml): 100% | inhibition at 0.1 µg/mL ([3]; 10^-7 g/ml): 82% | Average Inhibition Rate ([1]; 3 mg/kg oral, 1 Hour): 48% | Average Inhibition Rate ([1]; 3 mg/kg oral, 4 Hours): 23% | Average Inhibition Rate ([1]; 30 mg/kg oral, 1 Hour): 72% | Average Inhibition Rate ([1]; 30 mg/kg oral, 4 Hours): 70% | inhibition in vivo at 3 mg/kg [2]: 45%

From patent US5604226A, “Pyridazinone derivatives, processes for production thereof and use thereof” (Nihon Nohyaku Co., Ltd., priority 1993, dated 1997)
